Test results reported in ChEMBL document CHEMBL1201862, “PubChem BioAssay data set” (2004).
The source made the active and inactive calls.

Assays:
[1] = TB: CFU replicating Measured in Microorganism System Using Imaging - 7108-05_Inhibitor_Dose_DryPowder_Activity_Set2.; format: functional
[2] = Luminescence-based cell-based high throughput dose response assay to identify activators of the DAF-12 from the parasite S. stercoralis (ssDAF-12).; format: functional
[3] = biological target: T1, Oxysterols receptor LXR-beta (Homo sapiens, UniProt P55055); assay: LXR agonists, Gal4 luciferase reporter, dose response, counter-screen for ssDAF-12 agonist project, cell-based, luminescence, HEK293, S. stercoralis campaign (AID 720737); format: functional; conditions: read-out: IC50 (the source's name)
T1 sequence (P55055 whole entry): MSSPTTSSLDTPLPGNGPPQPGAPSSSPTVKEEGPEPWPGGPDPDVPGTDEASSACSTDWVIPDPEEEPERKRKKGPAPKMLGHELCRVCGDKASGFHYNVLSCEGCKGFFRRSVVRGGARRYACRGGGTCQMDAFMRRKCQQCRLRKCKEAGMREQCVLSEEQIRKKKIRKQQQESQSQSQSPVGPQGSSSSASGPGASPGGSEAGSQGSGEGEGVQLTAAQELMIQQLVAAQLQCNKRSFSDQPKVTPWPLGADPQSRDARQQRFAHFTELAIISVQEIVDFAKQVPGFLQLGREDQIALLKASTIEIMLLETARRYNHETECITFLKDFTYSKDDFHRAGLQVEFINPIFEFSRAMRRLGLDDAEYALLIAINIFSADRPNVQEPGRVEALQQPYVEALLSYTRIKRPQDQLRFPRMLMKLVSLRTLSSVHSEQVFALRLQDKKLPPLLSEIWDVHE

[4] = M. tuberculosis growth inhibition, HTS (AID 449762); format: functional
Ephrin type-A receptor 4 = Ephrin type-A receptor 4 (Mus musculus, UniProt Q03137); assay: EphA4 ligand-binding antagonists – biochemical, colorimetric, mouse EphA4, primary screen (AID 689); format: functional
[5] = biological target: Sphingosine 1-phosphate receptor 3 (Homo sapiens, UniProt Q99500); assay: Late stage counterscreen assay for S1P4 antagonists: Fluorescence dose response cell-based screening assay for antagonists of the Sphingosine 1-Phosphate Receptor 3 (S1P3). [Related pubchem assays (depositor defined):AID1510, AID1524, AID1692, AID1853, AID2332, AID489009, AID489017]; format: functional
[6] = biological target: T2, Sphingosine 1-phosphate receptor 4 (Homo sapiens, UniProt O95977); assay: Late stage fluorescence dose response cell-based screening assay for antagonists of the Sphingosine 1-Phosphate Receptor 4 (S1P4). [Related pubchem assays: 1524 (Confirmation screen (S1P4 antagonists).), 1510 (Primary screen (S1P4 antagonists).), 1853 (Summary AID (S1P4 antagonists).), 1692 (Dose response screen (S1P4 antagonists).)]; format: functional
T2 sequence (O95977 whole entry): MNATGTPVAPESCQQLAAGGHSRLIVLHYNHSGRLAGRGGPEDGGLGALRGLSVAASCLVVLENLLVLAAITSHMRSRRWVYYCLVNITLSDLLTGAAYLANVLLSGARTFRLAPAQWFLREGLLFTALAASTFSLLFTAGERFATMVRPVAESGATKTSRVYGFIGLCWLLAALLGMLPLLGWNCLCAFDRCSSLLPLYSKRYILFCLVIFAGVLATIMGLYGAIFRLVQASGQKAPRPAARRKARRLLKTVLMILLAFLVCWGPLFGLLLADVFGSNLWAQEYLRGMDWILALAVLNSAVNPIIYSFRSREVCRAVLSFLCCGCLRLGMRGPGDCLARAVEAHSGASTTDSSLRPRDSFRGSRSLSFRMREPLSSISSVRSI

[7] = biological target: T2, Sphingosine 1-phosphate receptor 4; assay: Fluorescence dose response cell-based high throughput screening assay for antagonists of the Sphingosine 1-Phosphate Receptor 4 (S1P4). [Related pubchem assays: 1524 (Confirmation in triplicates.), 1510 (Primary screen.)]; format: functional
[8] = biological target: T3, Sphingosine 1-phosphate receptor 1 (Homo sapiens, UniProt P21453); assay: Late stage counterscreen assay for S1P4 antagonists: Fluorescence dose response cell-based screening assay for antagonists of the Sphingosine 1-Phosphate Receptor 1 (S1P1). [Related pubchem assays (depositor defined):AID1510, AID1524, AID1692, AID1853, AID2332, AID489009, AID489017]; format: functional
[9] = biological target: T3, Sphingosine 1-phosphate receptor 1; format: functional
[10] = biological target: Sphingosine 1-phosphate receptor 5 (Homo sapiens, UniProt Q9H228); assay: Late stage counterscreen assay for S1P4 antagonists: Fluorescence dose response cell-based screening assay for antagonists of the Sphingosine 1-Phosphate Receptor 5 (S1P5). [Related pubchem assays (depositor defined):AID1510, AID1524, AID1692, AID1853, AID2332, AID489009, AID489017]; format: functional
[11] = biological target: Sphingosine 1-phosphate receptor 2 (Homo sapiens, UniProt O95136); assay: Late stage counterscreen assay for S1P4 antagonists: Fluorescence dose response cell-based screening assay for antagonists of the Sphingosine 1-Phosphate Receptor 2 (S1P2). [Related pubchem assays (depositor defined):AID1510, AID1524, AID1692, AID1853, AID2332, AID489009, AID489017]; format: functional
Leucine aminopeptidase = biological target: T4, Leucine aminopeptidase (Plasmodium falciparum 3D7, UniProt Q8IL11); assay: P. falciparum M17LAP inhibitors, primary screen, biochemical, fluorogenic H-Leu-NHMec substrate, 1536-well (AID 1619); format: functional
T4 sequence (Q8IL11 whole entry): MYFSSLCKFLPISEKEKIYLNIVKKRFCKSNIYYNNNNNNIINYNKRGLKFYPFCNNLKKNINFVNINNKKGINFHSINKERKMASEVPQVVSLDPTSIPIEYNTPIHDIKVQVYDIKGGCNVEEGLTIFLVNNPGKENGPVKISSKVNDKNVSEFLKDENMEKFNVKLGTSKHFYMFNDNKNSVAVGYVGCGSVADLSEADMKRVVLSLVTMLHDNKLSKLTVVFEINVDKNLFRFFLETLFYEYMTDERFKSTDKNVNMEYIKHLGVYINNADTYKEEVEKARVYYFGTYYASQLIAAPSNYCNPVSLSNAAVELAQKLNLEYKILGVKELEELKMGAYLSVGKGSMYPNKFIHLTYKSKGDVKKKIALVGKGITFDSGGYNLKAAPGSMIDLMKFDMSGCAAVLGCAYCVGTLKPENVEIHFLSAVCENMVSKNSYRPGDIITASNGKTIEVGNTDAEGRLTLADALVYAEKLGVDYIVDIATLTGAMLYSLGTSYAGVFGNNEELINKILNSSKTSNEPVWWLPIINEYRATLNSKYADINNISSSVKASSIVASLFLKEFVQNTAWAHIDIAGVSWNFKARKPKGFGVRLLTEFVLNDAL

[12] = biological target: Solute carrier family 12 member 2/member 5 (Homo sapiens, UniProt P55011+Q9H2X9); assay: KCC2 and NKCC1 inhibition by rubidium flux, cell-based, NKCC1 counter-screen (AID 1734); format: functional, HEK293
[13] = antimalarial activity against Dd2 parasites – SYBR Green fluorescence, erythrocytes, dry powder, set 2, dose response (AID 1159574); format: functional, cell-based
Caspase-9 = Caspase-9 (Homo sapiens, UniProt P55211); assay: inhibitors of purified CASP9 protease – biochemical, fluorescence, plate reader, cherry-picked samples, selectivity assay for caspase-6 inhibitor project, dose response (AID 743293)
Protein skinhead-1 = biological target: T5, Protein skinhead-1 (Caenorhabditis elegans, UniProt P34707); format: functional
T5 sequence (P34707 whole entry): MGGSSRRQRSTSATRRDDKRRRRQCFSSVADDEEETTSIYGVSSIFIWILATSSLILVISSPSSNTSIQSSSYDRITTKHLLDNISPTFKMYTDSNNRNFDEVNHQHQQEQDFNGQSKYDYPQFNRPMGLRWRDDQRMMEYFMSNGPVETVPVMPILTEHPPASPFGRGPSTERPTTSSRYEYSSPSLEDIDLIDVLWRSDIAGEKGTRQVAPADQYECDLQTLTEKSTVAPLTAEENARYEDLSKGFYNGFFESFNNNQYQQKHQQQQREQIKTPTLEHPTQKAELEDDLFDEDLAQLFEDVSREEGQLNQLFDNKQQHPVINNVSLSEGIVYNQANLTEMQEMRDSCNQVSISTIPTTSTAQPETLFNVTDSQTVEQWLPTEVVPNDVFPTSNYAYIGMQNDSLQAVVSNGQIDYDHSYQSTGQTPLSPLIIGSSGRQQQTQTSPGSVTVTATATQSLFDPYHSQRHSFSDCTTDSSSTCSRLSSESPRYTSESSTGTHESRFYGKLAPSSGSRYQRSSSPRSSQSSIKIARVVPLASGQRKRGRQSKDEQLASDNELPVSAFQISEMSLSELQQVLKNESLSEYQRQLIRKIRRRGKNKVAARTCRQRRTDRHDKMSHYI

[14] = biological target: Tyrosyl-DNA phosphodiesterase 2 (Homo sapiens, UniProt O95551); assay: potency against TDP2 phosphodiesterase activity – biochemical, epi absorbance, IC50, dose response (AID 743297)
Caspase-3 = biological target: T6, Caspase-3 (Homo sapiens, UniProt P42574); assay: human caspase-3 protease activity blockade – biochemical, fluorescence, cherry-picked samples, selectivity assay for caspase-6 allosteric inhibitor project, dose response (AID 743291)
T6 sequence (P42574 whole entry): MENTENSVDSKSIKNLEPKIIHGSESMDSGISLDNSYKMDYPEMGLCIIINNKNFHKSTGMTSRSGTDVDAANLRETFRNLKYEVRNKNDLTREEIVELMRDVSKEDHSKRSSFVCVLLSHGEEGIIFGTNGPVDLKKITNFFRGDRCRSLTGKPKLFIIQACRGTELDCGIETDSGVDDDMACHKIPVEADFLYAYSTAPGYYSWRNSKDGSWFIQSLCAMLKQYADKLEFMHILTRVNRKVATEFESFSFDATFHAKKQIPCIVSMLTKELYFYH

Caspase-6 = Caspase-6 (Homo sapiens, UniProt P55212); assay: inhibition of CASP6 peptide cleavage – biochemical, VEID-R110 fluorescence, cherry-pick, dose response (AID 720632)
Caspase-7 = Caspase-7 (Homo sapiens, UniProt P55210); assay: caspase-7 enzyme inhibition, selectivity check – biochemical, DEVD-R110 fluorescence, cherry-pick, selectivity assay for caspase-6 inhibitor project, dose response (AID 743295); format: functional
[15] = biological target: T7, Polyadenylate-binding protein 1 (Homo sapiens, UniProt P11940); assay: MLLE domain peptide-binding blockers, IC50 – biochemical, fluorescence polarization, FITC-PAM2 peptide, dose response (AID 602259); format: functional; conditions: read-out: IC50_Mean
Caspase-8 = Caspase-8 (Homo sapiens, UniProt Q14790); assay: inhibitors of purified CASP8 protease – biochemical, Z-IETD-R110 fluorescence, cherry-picked samples, selectivity assay for caspase-6 inhibitor project, dose response (AID 743294)
[16] = biological target: T7, Polyadenylate-binding protein 1; assay: MLLE binding blockers, Cy5 peptide tracer – biochemical, fluorescence polarization, Cy5-PAM2 peptide, secondary, miRNA deadenylation inhibitor project, dose response (AID 602260); format: functional; conditions: read-out: IC50_Mean
[17] = viability inhibitors of stage V gametocytes – luminescence, dose response (AID 1117278); format: functional, cell-based;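 also: gametocytes exposed to compound for 24 hours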
[18] = viability loss in human Jurkat cells – cell-based, luminescence, cytotoxicity control for P. falciparum gametocyte viability project, dose response (AID 1117277); format: functional;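 also: potency reflects loss of cellular ATP meaning fewer viable cells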
[19] = IC50 of insulin release inhibition, rat insulinoma INS-1E line, 5 mM glucose, cell-based (AID 1117331); format: functional
Transthyretin = Transthyretin (Homo sapiens, UniProt P02766); assay: Luminescence-based cell-based high throughput dose response assay to identify activators of Transthyretin (TTR) transcription.; format: functional

T7 sequence (P11940 whole entry, the tested form may be a part): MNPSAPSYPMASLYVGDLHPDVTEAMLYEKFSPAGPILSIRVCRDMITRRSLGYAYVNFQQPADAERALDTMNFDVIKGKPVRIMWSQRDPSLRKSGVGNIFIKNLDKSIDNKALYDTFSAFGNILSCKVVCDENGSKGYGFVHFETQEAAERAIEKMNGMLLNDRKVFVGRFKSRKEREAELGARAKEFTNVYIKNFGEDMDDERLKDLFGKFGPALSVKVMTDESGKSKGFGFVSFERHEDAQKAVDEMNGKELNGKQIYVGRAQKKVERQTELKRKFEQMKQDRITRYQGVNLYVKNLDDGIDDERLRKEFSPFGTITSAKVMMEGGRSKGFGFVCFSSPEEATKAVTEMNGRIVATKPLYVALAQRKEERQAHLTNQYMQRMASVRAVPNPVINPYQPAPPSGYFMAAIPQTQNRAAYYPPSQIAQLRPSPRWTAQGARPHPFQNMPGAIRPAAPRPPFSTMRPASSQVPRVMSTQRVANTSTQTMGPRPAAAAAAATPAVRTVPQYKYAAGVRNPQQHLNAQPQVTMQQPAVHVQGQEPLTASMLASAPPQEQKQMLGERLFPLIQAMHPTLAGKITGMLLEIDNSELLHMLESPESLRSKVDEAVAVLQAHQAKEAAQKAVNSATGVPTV
T3 sequence (P21453 whole entry): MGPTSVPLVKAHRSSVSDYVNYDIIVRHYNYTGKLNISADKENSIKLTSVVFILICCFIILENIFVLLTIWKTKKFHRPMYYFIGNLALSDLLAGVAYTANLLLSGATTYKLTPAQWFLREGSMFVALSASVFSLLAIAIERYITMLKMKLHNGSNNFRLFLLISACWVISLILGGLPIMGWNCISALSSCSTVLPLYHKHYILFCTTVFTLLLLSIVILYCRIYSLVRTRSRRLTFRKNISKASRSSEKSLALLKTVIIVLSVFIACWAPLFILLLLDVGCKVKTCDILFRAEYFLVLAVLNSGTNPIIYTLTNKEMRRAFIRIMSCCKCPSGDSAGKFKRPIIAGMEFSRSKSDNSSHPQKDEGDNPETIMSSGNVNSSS
Sequence of Caspase-7 (P55210 24-198 limits assumed): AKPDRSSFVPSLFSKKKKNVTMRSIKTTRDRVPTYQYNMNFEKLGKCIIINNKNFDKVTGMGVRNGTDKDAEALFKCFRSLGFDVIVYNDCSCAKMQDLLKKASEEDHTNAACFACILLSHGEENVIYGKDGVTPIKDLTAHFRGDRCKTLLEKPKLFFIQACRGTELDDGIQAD
Sequence of Caspase-7 (P55210 207-303 limits assumed): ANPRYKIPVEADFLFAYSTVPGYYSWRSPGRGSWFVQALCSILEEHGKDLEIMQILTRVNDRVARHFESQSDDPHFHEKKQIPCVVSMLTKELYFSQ
Sequence of Sphingosine 1-phosphate receptor 2 (O95136 whole entry): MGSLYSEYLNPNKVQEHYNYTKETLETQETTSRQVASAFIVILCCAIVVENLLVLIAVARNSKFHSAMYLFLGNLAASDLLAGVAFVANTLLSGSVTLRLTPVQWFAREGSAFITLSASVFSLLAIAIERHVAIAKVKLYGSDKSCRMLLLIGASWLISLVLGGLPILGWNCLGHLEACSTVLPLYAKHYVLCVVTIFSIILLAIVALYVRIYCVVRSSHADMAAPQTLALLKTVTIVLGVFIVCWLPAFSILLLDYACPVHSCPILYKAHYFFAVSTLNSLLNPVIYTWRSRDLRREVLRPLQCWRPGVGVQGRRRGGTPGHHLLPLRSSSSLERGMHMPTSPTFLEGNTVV
Sequence of Caspase-8 (Q14790 217-374 limits assumed): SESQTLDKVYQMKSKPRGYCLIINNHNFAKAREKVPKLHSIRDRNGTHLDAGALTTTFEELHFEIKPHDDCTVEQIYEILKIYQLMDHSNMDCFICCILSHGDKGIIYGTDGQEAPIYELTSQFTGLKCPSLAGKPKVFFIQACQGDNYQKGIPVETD
Sequence of Caspase-8 (Q14790 385-479 limits assumed): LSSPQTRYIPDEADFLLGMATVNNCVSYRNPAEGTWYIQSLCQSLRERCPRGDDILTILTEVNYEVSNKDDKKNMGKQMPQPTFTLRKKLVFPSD
Sequence of Tyrosyl-DNA phosphodiesterase 2 (O95551 whole entry): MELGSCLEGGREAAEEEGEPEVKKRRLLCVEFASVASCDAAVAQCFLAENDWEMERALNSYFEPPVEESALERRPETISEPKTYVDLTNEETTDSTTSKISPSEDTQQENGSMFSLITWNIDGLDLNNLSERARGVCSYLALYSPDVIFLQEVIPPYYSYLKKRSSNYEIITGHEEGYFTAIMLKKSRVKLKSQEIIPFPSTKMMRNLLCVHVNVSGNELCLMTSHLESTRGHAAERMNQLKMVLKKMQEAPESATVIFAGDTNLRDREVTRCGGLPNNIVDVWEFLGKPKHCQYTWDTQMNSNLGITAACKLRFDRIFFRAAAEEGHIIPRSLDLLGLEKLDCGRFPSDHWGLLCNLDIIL
Sequence of Ephrin type-A receptor 4 (Q03137 whole entry): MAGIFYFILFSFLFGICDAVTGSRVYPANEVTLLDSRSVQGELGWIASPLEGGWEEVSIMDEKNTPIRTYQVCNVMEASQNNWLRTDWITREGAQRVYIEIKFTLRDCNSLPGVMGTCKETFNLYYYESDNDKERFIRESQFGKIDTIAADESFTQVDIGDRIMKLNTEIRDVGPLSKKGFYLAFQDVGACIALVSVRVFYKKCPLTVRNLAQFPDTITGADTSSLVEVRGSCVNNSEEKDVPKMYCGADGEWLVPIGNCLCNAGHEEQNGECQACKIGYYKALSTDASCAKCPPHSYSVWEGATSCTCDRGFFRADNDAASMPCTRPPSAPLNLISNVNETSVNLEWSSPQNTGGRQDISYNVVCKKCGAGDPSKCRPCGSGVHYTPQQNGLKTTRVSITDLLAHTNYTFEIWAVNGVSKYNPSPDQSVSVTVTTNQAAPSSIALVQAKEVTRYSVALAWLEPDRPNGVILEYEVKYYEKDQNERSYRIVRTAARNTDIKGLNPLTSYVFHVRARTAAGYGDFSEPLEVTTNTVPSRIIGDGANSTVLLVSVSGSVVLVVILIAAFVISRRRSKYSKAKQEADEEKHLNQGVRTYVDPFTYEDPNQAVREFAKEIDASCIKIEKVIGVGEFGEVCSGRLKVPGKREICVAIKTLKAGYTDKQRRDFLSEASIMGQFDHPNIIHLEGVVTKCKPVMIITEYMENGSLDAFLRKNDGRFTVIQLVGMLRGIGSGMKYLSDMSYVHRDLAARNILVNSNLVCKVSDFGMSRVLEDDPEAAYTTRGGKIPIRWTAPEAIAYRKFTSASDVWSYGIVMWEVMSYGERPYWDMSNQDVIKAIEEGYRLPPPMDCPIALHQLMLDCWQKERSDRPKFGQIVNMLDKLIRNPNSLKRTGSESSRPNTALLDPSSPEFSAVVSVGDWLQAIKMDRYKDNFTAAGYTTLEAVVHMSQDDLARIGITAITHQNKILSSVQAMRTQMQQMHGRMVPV
Sequence of Caspase-9 (P55211 1-315 limits assumed): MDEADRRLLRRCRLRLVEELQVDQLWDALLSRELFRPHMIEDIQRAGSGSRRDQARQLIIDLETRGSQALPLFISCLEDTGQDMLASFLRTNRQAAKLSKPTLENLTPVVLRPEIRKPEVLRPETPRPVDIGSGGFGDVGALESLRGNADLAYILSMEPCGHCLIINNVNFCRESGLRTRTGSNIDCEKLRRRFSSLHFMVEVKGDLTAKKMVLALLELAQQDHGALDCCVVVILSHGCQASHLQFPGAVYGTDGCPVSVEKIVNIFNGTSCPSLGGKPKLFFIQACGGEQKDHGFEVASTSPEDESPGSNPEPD
Sequence of Caspase-9 (P55211 331-416 limits assumed): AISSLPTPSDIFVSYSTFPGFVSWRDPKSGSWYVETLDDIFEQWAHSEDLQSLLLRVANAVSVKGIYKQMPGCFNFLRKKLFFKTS
Sequence of Sphingosine 1-phosphate receptor 5 (Q9H228 whole entry): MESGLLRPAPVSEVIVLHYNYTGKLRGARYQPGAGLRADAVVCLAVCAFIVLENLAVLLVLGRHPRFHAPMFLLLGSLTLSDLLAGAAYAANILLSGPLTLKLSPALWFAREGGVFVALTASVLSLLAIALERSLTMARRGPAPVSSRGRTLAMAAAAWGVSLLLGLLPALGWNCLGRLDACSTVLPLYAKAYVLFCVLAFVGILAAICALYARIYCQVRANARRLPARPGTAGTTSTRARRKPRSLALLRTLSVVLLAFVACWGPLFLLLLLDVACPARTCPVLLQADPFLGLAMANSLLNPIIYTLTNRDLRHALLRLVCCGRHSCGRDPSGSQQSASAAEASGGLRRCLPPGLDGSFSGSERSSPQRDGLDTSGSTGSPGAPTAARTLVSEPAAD
Sequence of Caspase-6 (P55212 24-179 limits assumed): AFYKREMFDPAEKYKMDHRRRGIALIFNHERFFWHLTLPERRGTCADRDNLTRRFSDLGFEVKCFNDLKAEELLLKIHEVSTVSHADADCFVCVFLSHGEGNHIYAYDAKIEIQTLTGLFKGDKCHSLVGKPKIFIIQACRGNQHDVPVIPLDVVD
Sequence of Caspase-6 (P55212 194-293 limits assumed): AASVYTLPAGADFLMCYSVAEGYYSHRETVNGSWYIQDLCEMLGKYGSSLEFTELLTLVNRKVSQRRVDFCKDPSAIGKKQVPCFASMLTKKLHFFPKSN
Sequence of Sphingosine 1-phosphate receptor 3 (Q99500 whole entry): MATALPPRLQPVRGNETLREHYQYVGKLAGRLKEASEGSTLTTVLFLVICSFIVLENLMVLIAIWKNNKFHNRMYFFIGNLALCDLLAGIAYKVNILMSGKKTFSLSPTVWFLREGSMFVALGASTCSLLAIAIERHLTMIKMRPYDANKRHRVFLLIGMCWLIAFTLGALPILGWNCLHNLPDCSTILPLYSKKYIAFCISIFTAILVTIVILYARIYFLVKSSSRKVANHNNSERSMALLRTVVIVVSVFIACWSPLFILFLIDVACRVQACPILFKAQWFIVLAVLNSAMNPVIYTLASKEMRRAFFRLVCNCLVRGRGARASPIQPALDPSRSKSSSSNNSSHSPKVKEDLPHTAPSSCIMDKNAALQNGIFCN

Cn1c(NC(=O)c2ccccc2)nc2c(F)cccc21
AbsAC90 [1]: 160.65 µM

O=C(Nc1cccc(O)c1)c1c(O)nc2ccccc2c1O
IC50 [2]: > 67.5 µM (inactive) | EC50 [3]: > 67.5 µM (inactive)

CC(C)c1ccc2[nH]c(O)c(N=NC(=O)c3ccc(CSc4nncn4C)cc3)c2c1
IC50 [4]: > 100 µM (active)

CCn1c2ccc(Cl)cc2c2nc3ccccc3nc21
IC50 (Ephrin type-A receptor 4): 18.2 µM (active)

Cc1cc(NC(=O)/C=C/c2ccccc2)c(C(C)C)cc1O
IC50 [5]: > 25 µM (inactive) | IC50 [6]: 338 nM (active) | IC50 [7]: 852 nM (active) | IC50 [8]: > 25 µM (inactive) | IC50 [9]: > 49.8 µM (not active) | IC50 [10]: > 25 µM (inactive) | IC50 [11]: > 25 µM (inactive)

Cc1ccc(Nc2nnc(SCC(=O)c3cc4ccccc4o3)s2)cc1C
IC50 (Leucine aminopeptidase): 19.8 µM (active) | IC50 [12]: 640 nM (active)

COc1ccc(S(=O)(=O)N(C)C[C@H]2OCc3ccccc3-c3c(n(C)c4ccccc34)C(=O)N([C@@H](C)CO)C[C@H]2C)cc1
AC50 [13]: 5.13 µM (active)

Cn1c(=O)c2c(-c3ccccc3)n(-c3ccc(N)cc3)cc2n(C)c1=O
AC50 (Caspase-9): 69.8 µM (active) | IC50 (Protein skinhead-1): 73.6 µM (inactive) | IC50 [14]: > 128 µM (inactive) | AC50 (Caspase-3): 19.2 µM (active) | AC50 (Caspase-6): 1.07 µM (active) | AC50 (Caspase-7): 8.62 µM (active) | IC50 [15]: 38.4 µM (inactive) | AC50 (Caspase-8): > 70 µM (inactive) | IC50 [16]: > 66 µM (inactive)

COc1cc(S(=O)(=O)NC2CCCCC2)c(C)cc1C
IC50 [17]: > 109 µM (inactive) | IC50 [18]: > 83.3 µM (inactive)

CN1CCN2c3ccccc3Cc3ccccc3C2C1 (stereo not drawn) [MIANSERIN]
IC50 [19]: > 11.1 µM (inactive)

Cc1nn(C)c(C(=O)N2CCc3ccccc32)c1Br
EC50 (Transthyretin): > 167 µM (inactive)
